Data from patent US20120028990A1, “3 ARYL OR HETEROARYL-SUBSTITUTED INDOLE DERIVATIVE” (MSD K.K, priority 2010, published 2012).

target: T1, human QRFP receptor (GPR103) (Homo sapiens, UniProt Q96P65); assay: QRFP43-binding inhibitory test; conditions: inhibition of specific [125I]QRFP43 binding; membranes of CHO-K1 cells expressing GPR103; 25° C., 1 hour
T1 construct: expressed in transfected cells; host or cells: CHO-K1 NFAT beta-lactamase (Aurora); membrane sample
T1 sequence (Q96P65 1-431): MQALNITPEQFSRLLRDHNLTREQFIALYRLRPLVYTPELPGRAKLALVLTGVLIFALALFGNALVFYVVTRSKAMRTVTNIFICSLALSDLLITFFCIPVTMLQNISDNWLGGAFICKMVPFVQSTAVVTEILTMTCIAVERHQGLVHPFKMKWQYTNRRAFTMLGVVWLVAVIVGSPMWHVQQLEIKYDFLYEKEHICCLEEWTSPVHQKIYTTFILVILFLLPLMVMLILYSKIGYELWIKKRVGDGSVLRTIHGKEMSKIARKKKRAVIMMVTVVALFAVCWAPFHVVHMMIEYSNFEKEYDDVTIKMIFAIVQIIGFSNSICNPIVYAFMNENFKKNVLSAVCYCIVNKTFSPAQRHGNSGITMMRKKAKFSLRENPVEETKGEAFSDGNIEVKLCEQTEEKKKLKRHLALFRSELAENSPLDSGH
Source text: A cDNA sequence [Accession No. NM_198179] coding for a human QRFP receptor (GPR103) was cloned in an expression vector pEF1V5-HisB (by Invitrogen). The resulting expression vector was transfected in a host cell CHO-K1 NFAT (3-Lactamase (by Aurora), according to a cationic lipid process [see Proceedings of the National Academy of Sciences of the United States of America, Vol. 84, p. 7413, 1987], thereby producing a QRFP receptor (GPR103).
A membrane sample prepared from the cells having expressed a QRFP receptor (GPR103) was incubated in an assay buffer (50 mM Tris-HCl, 1 mM EDTA and 0.1% BSA, pH 7.4) along with a test compound and 20,000 cpm [^125I] QRFP43 (by Perkin Elmer) therein, at 25° C. for 1 hour, and then filtered through a glass filter GF/C. After washed with 50 mM Tris-HCl (containing 2 mM EDTA, 10 mM MgCl2 and 0.04% Tween-20) buffer (pH 7.4), the radioactivity on the glass filter was determined. The non-specific binding was determined in the presence of 1 μM peptide QRFP43, and the 50% inhibitory concentration (IC50) of the test compound to the specific [^125I] QRFP43 binding was computed [see Endocrinology, Vol. 131, p. 2090, 1992].

| SMILES | IC50 [nM] |
| --- | --- |
| CN1CC[C@H]2C[C@H](NC(=O)c3cc4cc(Cl)ccc4n3C)CC[C@@H]2C1 (single isomer, unassigned) [Reference example 1, 5-chloro-1-methyl-N-(2-methyldecahydroisoquinolin-6-yl)-1H-indole-2-carboxamide] | 22.6 |
| CN1CCN(CCNC(=O)c2[nH]c3ccc(Cl)cc3c2-c2ccccc2)CC1 [Example 5, 5-chloro-N-[2-(4-methylpiperazin-1-yl)ethyl]-3-phenyl-1H-indole-2-carboxamide] | 11.4 |
| CN1CC[C@H]2C[C@H](NC(=O)c3[nH]c4ccc(Cl)cc4c3-c3ccoc3)CC[C@@H]2C1 (single isomer, unassigned) [Example 7, 5-chloro-3-(3-fury)-N-(2-methyldecahydroisoquinolin-6-yl)-1H-indole-2-carboxamide] | 9.82 |
| CN1CCN(CCNC(=O)c2[nH]c3ccc(Cl)cc3c2-c2cscn2)CC1 [Example 4, 5-chloro-N-[2-(4-methylpiperazin-1-yl)ethyl]-3-(1,3-thiazol-4-yl)-1H-indole-2-carboxamide] | 14.2 |

These reach a lower IC50. Values come first.

| IC50 [nM] | SMILES |
| --- | --- |
| 4.71 | CN1CCN(CCNC(=O)c2[nH]c3ccc(Cl)cc3c2-c2ccsc2)CC1 [Example 2, 5-chloro-N-[2-(4-methylpiperazin-1-yl)ethyl]-3-(3-thienyl)-1H-indole-2-carboxamide] |
| 4.68 | CN1CCN(CCNC(=O)c2[nH]c3ccc(Cl)cc3c2-c2cccs2)CC1 [Example 3, 5-chloro-N-[2-(4-methylpiperazin-1-yl)ethyl]-3-(2-thienyl)-1H-indole-2-carboxamide] |
| 2.26 | CN1CCN(CCNC(=O)c2[nH]c3ccc(Cl)cc3c2-c2ccoc2)CC1 [Example 1, 5-chloro-3-(3-fury)-N-[2-(4-methylpiperazin-1-yl)ethyl]-1H-indole-2-carboxamide] |
| 0.58 | O=C(NCCCCC(c1ccco1)N1CCCC1)c1[nH]c2ccc(Cl)cc2c1-c1ccoc1 (racemic) [Example 8, 5-chloro-3-(3-fury)-N-[5-(2-furyl)-5-pyrrolidin-1-ylpentyl]-1H-indole-2-carboxamide] |
| 6.24 | CN1CCC(CCNC(=O)c2[nH]c3ccc(Cl)cc3c2-c2ccoc2)CC1 [Example 6, 5-chloro-3-(3-fury)-N-[2-(1-methylpiperidin-4-yl)ethyl]-1H-indole-2-carboxamide] |
| 1.06 | CNC(CCCCNC(=O)c1[nH]c2ccccc2c1-c1ccoc1)c1ccccn1 (single isomer, unassigned) [Example 9, 3-(3-fury)-N-[5-(methylamino)-5-pyridin-2-ylpentyl]-1H-indole-2-carboxamide] |
